Bounds are passed on as bounds.

The target of this assay is HPK1 (Homo sapiens (Human), UniProt Q92918). In words: HPK1 biochemical enzyme assay (microfluidic mobility shift assay). Particulars: 1.5 nM HPK1, ATP 1 mM final, 30 min preincubation, 60 min at RT, Caliper EZ Reader; read-out: HPK1 1000UMATP caliper IC50. Summed up: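 Ten-point compound titrations (top 3 μM final) preincubated 30 min with HPK1 and substrate, then reaction started with 1 mM ATP and 1 μM substrate, 5 mM MgCl2. After 60 min at RT, reaction terminated and product measured by microfluidic mobility shift.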
Sequence of HPK1 (Q92918 whole entry): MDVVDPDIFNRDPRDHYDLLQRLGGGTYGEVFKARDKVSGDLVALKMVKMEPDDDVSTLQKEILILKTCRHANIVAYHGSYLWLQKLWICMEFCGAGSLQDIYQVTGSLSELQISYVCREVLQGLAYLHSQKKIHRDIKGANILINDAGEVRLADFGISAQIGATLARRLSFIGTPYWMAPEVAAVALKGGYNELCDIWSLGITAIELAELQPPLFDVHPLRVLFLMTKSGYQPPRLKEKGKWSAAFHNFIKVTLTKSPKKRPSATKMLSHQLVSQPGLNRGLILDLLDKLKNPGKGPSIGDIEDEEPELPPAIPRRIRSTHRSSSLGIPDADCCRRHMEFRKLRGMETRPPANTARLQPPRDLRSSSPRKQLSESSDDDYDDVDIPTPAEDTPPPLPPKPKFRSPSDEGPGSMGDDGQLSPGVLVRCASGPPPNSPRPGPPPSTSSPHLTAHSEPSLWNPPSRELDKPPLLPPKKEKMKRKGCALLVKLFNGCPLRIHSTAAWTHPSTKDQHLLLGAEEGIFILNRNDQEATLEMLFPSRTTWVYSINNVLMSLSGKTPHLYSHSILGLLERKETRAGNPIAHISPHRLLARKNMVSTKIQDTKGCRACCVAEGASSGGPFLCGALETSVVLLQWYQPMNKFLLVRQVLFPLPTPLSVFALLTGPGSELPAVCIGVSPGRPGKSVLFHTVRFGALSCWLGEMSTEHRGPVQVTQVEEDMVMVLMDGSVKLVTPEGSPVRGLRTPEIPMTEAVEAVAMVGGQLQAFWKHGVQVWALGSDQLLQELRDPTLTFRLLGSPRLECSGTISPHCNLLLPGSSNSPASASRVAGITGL
The term IC50 denotes the concentration that inhibits the measured activity by half. Turning to `Cn1ccc2c(-c3ncc(Nc4ccc(N5CCC[C@H](C(C)(C)O)C5)cn4)c4c3CNC4=O)ccnc21` [I-211, 7-[[5-[(3S)-3-(1-hydroxy-1-methyl-ethyl)-1-piperidyl]-2-pyridyl]-amino]-4-(1-methylpyrrolo [2,3-b]pyridin-4-yl)-2,3-dihydropyrrolo [3,4-c]pyridin-1-one], the concentration for half-maximal inhibition (IC50) is under 100 nM. In the case of `O=C1NCc2c(-c3cnc4cnccn34)ccc(Nc3ccc(N4C[C@H]5COC[C@H]5C4)cn3)c21` [I-318, 4-(imidazo[1,2-a]pyrazin-3-yl)-7-((5-((3aR,6aS)-tetrahydro-1H-furo[3,4-c]pyrrol-5(3H)-yl)pyridin-2-yl)amino)isoin-dolin-1-one], the half-inhibitory concentration (IC50) was under 100 nM. On to `CN(C)Cc1ccn2c(-c3ccc(Nc4ccc(N5CCC(O)CC5)cn4)c4c3CNC4=O)cnc2c1` [I-380, 4-(7-((dimethylamino)-methyl)imi-dazo[1,2-a]pyridin-3-yl)-7-((5-(4-hydroxy-piperidin-1-yl)pyridin-2-yl)amino)isoin-dolin-1-one], for which the 50% inhibitory concentration (IC50) was in the range of 100 to 1000 nM.

Turning to `CN(C)Cc1nc(Nc2ccc(-c3cnc4cc(F)ccn34)c3c2C(=O)NC3)ccc1N1CC[C@@H](F)[C@H](O)C1` [I-700, 7-((6-((dimethylamino)-methyl)-5-((3R,4R]-4-fluoro-3-hydroxypiperidin-1-yl)pyridin-2-yl)amino)-4-(7-fluoroimidazo [1,2-a]pyridin-3-yl)isoindolin-1-one], the IC50 is under 100 nM. On to `CN1CCN(c2ccc(Nc3ccc(-c4ccnc5[nH]ccc45)c4c3C(=O)NC4)nc2)CC1` [I-31, 7-[[5-(4-methylpiperazin-1-yl)-2-pyridyl]amino]-4-(1H-pyrrolo[2,3-b]pyridin-4-yl)-isoindolin-1-one], for which the IC50 is under 100 nM.

Turning to `CCn1ccc2c(-c3ccc(Nc4ccc(N5CCN(C)CC5)cn4)c4c3CNC4=O)ccnc21` [I-49], the IC50 was under 100 nM.

As to `CO[C@H]1CC[C@H](CO)N(c2ccc(Nc3ccc(-c4cnn5c4CCCC5)c4c3C(=O)NC4)nc2)C1` [I-571, 7-((5-((2R,5S)-2-(hydroxymeth-yl)-5-methoxy-piperidin-1-yl)pyridin-2-yl)amino)-4-(4,5,6,7-tetrahydropyra-zolo[1,5-a]pyridin-3-yl)isoindolin-1-one], the half-maximal inhibitory concentration (IC50) was under 100 nM.

With `CNC(C)(C)[C@H]1CN(c2ccc(Nc3ccc(-c4cnc5cc(F)ccn45)c4c3C(=O)NC4)nc2)CCO1` (single isomer, unassigned) [I-676], the IC50 is under 100 nM. `Cn1ccc2c(-c3ncc(Nc4ccc([C@H]5CCOC5)c(CN5CC[C@H](O)C5)n4)c4c3CNC4=O)ccnc21` [I-812, 7-((6-(((S)-3-hydroxypyrroli-din-1-yl)methyl)-5-((R)-THF-3-yl)pyridin-2-yl)amino)-4-(1-methyl-1H-pyrrolo[2,3-b]pyridin-4-yl)-2,3-dihydro-1H-pyrrolo[3,4-c]pyridin-1-one]: the IC50 is under 100 nM. As to `CCOc1c(C#N)ccn2c(-c3ccc(Nc4ccc(N5CCC(O)CC5)cn4)c4c3CNC4=O)cnc12` [I-185, 8-ethoxy-3-[7-[[5-(4-hydroxy-1-piperidyl)-2-pyripyl]amino]-1-oxo-isoindolin-4-yl]imidazo[1,2-a]pyridine-7-carbonitrile], the IC50 lay within 100 to 1000 nM. For `Cc1ccn2c(-c3ccc(Nc4ccc(N5CC[C@@H](F)[C@H](O)C5)cn4)c4c3CNC4=O)cnc2c1F` [I-583, 7-((5-((3R,4R]-4-fluoro-3-hydroxypiperidin-1-yl)pyridin-2-yl)amino)-4-(8-fluoro-7-methylimidazo [1,2-a]pyridin-3-yl)isoindolin-1-one], the IC50 is under 100 nM. On to `Cn1ccc2c(-c3ncc(Nc4ccc(N5CCC(O)(CN6CCOCC6)CC5)cn4)c4c3CNC4=O)ccnc21` [I-343, 7-((5-(4-hydroxy-4-(morpholinomethyl)piperidin-1-yl)pyridin-2-yl)amino)-4-(1-methyl-1H-pyrrolo[2,3-b]pyridin-4-yl)-2,3-dihydro-1H-pyrrolo[3,4-c]pyridin-1-one], for which the half-inhibitory concentration (IC50) is under 100 nM. Turning to `Cc1ccn2c(-c3ccc(Nc4ccc(N5CCC[C@H](C(C)(C)O)C5)cn4)c4c3CNC4=O)cnc2n1` [I-225, 7-[[5-[(3S)-3-(1-hydroxy-1-methyl-ethyl)-1-piperidyl]-2-pyridyl]-amino]-4-(7-methylimidazo [1,2-a]pyrimidin-3-yl)isoindolin-1-one], the half-inhibitory concentration (IC50) is under 100 nM.

On to `O=C1NCc2c(-c3cnc4cc(F)ccn34)ccc(Nc3ccc(N4CC[C@H](O)[C@@H](F)C4)cn3)c21` [I-400, 7-((5-((3S, 4S)-3-fluoro-4-hydroxy-piperidin-1-yl)pyridin-2-yl)amino)-4-(7-fluoroimidazo [1,2-a]pyridin-3-yl)isoindolin-1-one], for which the half-inhibitory concentration (IC50) is under 100 nM. With `O=C1NCc2c(-c3cnc4cc(F)ccn34)ccc(Nc3ccc([C@@H]4CCOC4)c(CN4CCC[C@H]4CO)n3)c21` [I-828, 4-(7-fluoroimidazo [1,2-a]pyridin-3-yl)-7-((6-(((S)-2-(hydroxymeth-yl)pyrrolidin-1-yl)methyl)-5-((S)-THF-3-yl)pyridin-2-yl)amino)isoin-dolin-1-one], the IC50 is under 100 nM.

Regarding `C[C@@H]1C[C@H](O)CCN1c1ccc(Nc2ccc(-c3cnc4cnccn34)c3c2C(=O)NC3)nc1` [I-350, 7-((5-((2R,4R]-4-hydroxy-2-methylpiperidin-1-yl)pyridin-2-yl)amino)-4-(imidazo[1,2-a]pyrazin-3-yl)isoindolin-1-one], the IC50 is under 100 nM. For `CN1C[C@@H]2CCN(c3cccc(Nc4cnc(-c5ccnc6c5ccn6C)c5c4C(=O)NC5)n3)[C@@H]2C1` [I-630, 4-(1-methyl-1H-pyrrolo[2,3-b]pyridin-4-yl)-7-((6-((3aS, 6aS)-5-methylhexahy-dropyrrolo[3,4-b]pyrrol-1(2H)-yl)pyridin-2-yl)amino)-2,3-dihydro-1H-pyrrolo[3,4-c]pyridin-1-one], the IC50 was under 100 nM. With `CO[C@H]1CCN(Cc2nc(Nc3ccc(-c4cnc5cc(F)ccn45)c4c3C(=O)NC4)ccc2[C@@H]2CCOC2)C1` [I-790, 4-(7-fluoroimidazo [1,2-a]pyridin-3-yl)-7-((6-(((S)-3-methoxypyrrol-idin-1-yl)methyl)-5-((S)-tetrahydiofuran-3-yl)pyridin-2-yl)amino)isoin-dolin-1-one] the figure was under 100 nM; with `Cn1ccc2c(-c3ncc(Nc4ccc(N5CCNCC5)cn4)c4c3CNC4=O)ccnc21` [I-258, 4-(1-methyl-1H-pyrrolo[2,3-b]pyridin-4-yl)-7-((5-(piperazin-1-yl)pyridin-2-yl)amino)-2,3-dihydro-1H-pyrrolo[3,4-c]pyridin-1-one], under 100 nM. For the compound `CC(C)(N)[C@@H]1CN(c2ccc(Nc3ccc(-c4cnc5cc(F)ccn45)c4c3C(=O)NC4)nc2)CCO1` (single isomer, unassigned) [I-670], the concentration for half-maximal inhibition (IC50) is under 100 nM.

As for `O=C1NCc2c(-c3cnc4cc(F)ccn34)ccc(Nc3ccc(C4CCOC4)c(N4CCNCC4)n3)c21` (stereo in doubt) [I-772, (S)-4-(7-fluoroimidazo [1,2-a]pyridin-3-yl)-7-((6-(piperazin-1-yl)-5-(tetrahydrofuran-3-yl)pyridin-2-yl)amino)isoin-dolin-1-one], the IC50 was under 100 nM. Consider `Cc1ccc2c(-c3ccc(Nc4ccc(N5CCN(C)CC5)cn4)c4c3CNC4=O)c[nH]c2n1` [I-29, 7-[[5-(4-methylpiperazin-1-yl)-2-pyridyl]amino]-4-(6-methyl-1H-pyrrolo[2,3-b]pyridin-3-yl)-isoindolin-1-one], for which the half-maximal inhibitory concentration (IC50) was under 100 nM. `CN(C)Cc1nc(Nc2cnc(-c3ccnc4c3ccn4C)c3c2C(=O)NC3)ccc1[C@@H]1CCOC1` (stereo in doubt) [I-707]: the half-maximal inhibitory concentration (IC50) was under 100 nM. With `Cc1cnc2c(ccn2C)c1-c1ccc(Nc2ccc(N3CCNCC3)cn2)c2c1CNC2=O` [I-99, 4-(l,5-dimethylpyrrolo [2,3-b]pyridin-4-yl)-7-[(5-piperazin-1-yl-2-pyridyl)amino] isoindolin-1-one] the figure was 100 to 1000 nM. For `O=C1NCc2c(-c3cnc4ccccn34)ccc(Nc3ccc(N4CCCNCC4)cn3)c21` [I-104, 7-[[5-(l,4-diazepan-1-yl)-2-pyridyl]amino]-4-imidazo[1,2-a]pyridin-3-yl-isoindolin-1-one], the half-inhibitory concentration (IC50) is under 100 nM.

Turning to `Cc1ccn2c(-c3ccc(Nc4ccc(N5CCOC(CN(C)C)C5)cn4)c4c3CNC4=O)cnc2c1F` (stereo in doubt) [I-613, (S)-7-((5-(2-((dimethylamino)-methyl)mor-pholino)pyridin-2-yl)amino)-4-(8-fluoro-7-methylimidazo [1,2-a]pyridin-3-yl)isoindolin-1-one], the half-maximal inhibitory concentration (IC50) is under 100 nM. With `CN(C)Cc1nc(Nc2ccc(-c3cnc4cc(C(F)F)ccn34)c3c2C(=O)NC3)ccc1C1CCOC1` (stereo in doubt) [I-753, (R)-4-(7-(difluoromethyl)-imidazo[1,2-a]pyridin-3-yl)-7-((6-((dimethylamino)-methyl)-5-(tetrahydrofuran-3-yl)pyridin-2-yl)amino)isoin-dolin-1-one] the figure was under 100 nM; with `Cc1ccn2c(-c3ccc(Nc4ccc(N5CCO[C@H](C(C)(C)O)C5)cn4)c4c3CNC4=O)cnc2n1` [I-645, (S)-7-((5-(2-(2-hydroxypropan-2-yl)morpliolino)pyridin-2-yl)amino)-4-(7-methylimidazo [1,2-a]pyrimidin-3-yl) isoindolin-1-one], under 100 nM. As to `CN(C)C(C)(C)c1nc(Nc2ccc(-c3cnc4cc(F)ccn34)c3c2C(=O)NC3)ccc1[C@@H]1CCOC1` [I-833, (S)-7-((6-(2-(dimethylami-no)propan-2-yl)-5-(THF-3-yl)pyridin-2-yl)amino)-4-(7-fluoroimidazo [1,2-a]pyridin-3-yl)isoindolin-1-one], the IC50 fell in the range of 100 to 1000 nM. As for `COC[C@@]1(O)CCCN(c2ccc(Nc3ccc(-c4cnc5cc(F)ccn45)c4c3C(=O)NC4)nc2)C1` [I-394, (R)-4-(7-fluoroimidazo [1,2-a]pyridin-3-yl)-7-((5-(3-hydroxy-3-(methoxymeth-yl)piperidin-1-yl)pyridin-2-yl)amino)isoin-dolin-1-one], the figure is under 100 nM.

These data come from patent US11021481B2, “Substituted isoindolin-1-ones and 2,3-dihydro-1h-pyrrolo[3,4-c]pyridin-1-ones as HPK1 antagonists” (Nimbus Saturn, Inc., priority 2019, dated 2021).
